From patent publication US10793580B2, “Substituted pyrazoloazepin-8-ones and their use as phosphodiesterase inhibitors” (LEO Pharma A/S, priority 2016, dated 2020) come the findings set out here.

As usually defined, the IC50 is the midpoint of a concentration-inhibition curve.

The target in the first assay is human PDE4D catalytic domain (Homo sapiens (Human), UniProt Q08499). Nature of the assay: PDE4 Assay (TR-FRET, FAM-cAMP cleavage). The assay is classed as biochemical. The settings on record: Table 16, Examples 277-296; read-out: PDE4 IC50 range. The method in brief: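 Readout is Tb-to-FAM time-resolved FRET after nanoparticle capture of AMP, the product of cleaving a cAMP/FAM-cAMP mixture by PDE4D catalytic domain (S380-L740) in the presence of titrated compound. Values are IC50 ranges in nM: concentration halving substrate cleavage relative to controls.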
Chain of human PDE4D catalytic domain (Q08499 380-740): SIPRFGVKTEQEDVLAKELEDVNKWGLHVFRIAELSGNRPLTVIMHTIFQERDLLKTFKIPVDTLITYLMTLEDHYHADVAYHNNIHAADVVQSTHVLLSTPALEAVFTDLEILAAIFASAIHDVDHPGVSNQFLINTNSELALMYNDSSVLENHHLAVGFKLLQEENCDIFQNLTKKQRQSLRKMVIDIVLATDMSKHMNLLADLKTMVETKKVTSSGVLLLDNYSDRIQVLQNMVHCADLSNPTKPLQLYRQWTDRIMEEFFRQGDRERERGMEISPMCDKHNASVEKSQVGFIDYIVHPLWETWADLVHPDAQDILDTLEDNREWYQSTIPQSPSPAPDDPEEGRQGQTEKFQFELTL
On the technique in general: In TR-FRET formats the signal depends on donor and acceptor labels being close together.
In the case of `CCn1nc(C[C@@H](C)COC(=O)c2ccn(C)n2)c2c1C(=O)NCC1(CCOCC1)C2` [Example 278, [(2R)-3-(1-ethyl-8-oxo-spiro[6,7-dihydro-4H-pyrazolo[3,4-c]azepine-5,4′-tetrahydropyran]-3-yl)-2-methyl-propyl] 1-methylpyrazole-3-carboxylate], the IC50 was under 100 nM.

Staying with this assay, now noted: Table 17, Examples 297-316; read-out: PDE4 IC50 range.
Take `CCn1nc(CC(C)(C)COC(=O)c2csc(C)n2)c2c1C(=O)NCC1(CCOCC1)C2` [Example 310, [3-(1-ethyl-8-oxo-spiro[6,7-dihydro-4H-pyrazolo[3,4-c]azepine-5,4′-tetrahydro-pyran]-3-yl)-2,2-dimethyl-propyl] 2-methylthiazole-4-carboxylate]: the IC50 was under 100 nM.

On to `CCn1nc(CC(C)(C)COC(=O)c2cnsc2)c2c1C(=O)NCC1(CCOCC1)C2` [Example 304, [3-(1-ethyl-8-oxo-spiro[6,7-dihydro-4H-pyrazolo[3,4-c]azepine-5,4′-tetrahydro-pyran]-3-yl)-2,2-dimethyl-propyl] isothiazole-4-carboxylate], for which the IC50 was under 100 nM.

The assay is the same for the next values; noted with them: human PDE4D catalytic domain (UniProt Q08499 [S380-L740]); 50% inhibition of substrate cleavage; read-out: PDE4 IC50 range.
In the case of `CCn1nc(CC(C)(C)COC(=O)c2ccc(C(=O)N3CCN(C)CC3)cc2)c2c1C(=O)NCC1(CCOCC1)C2` [Example 224, [3-(1-ethyl-8-oxo-spiro[6,7-dihydro-4H-pyrazolo[3,4-c]azepine-5,4′-tetrahydro-pyran]-3-yl)-2,2-dimethyl-propyl] 4-(4-methyl-piperazine-1-carbonyl)-benzoate], the IC50 is under 100 nM.

Consider `CCn1nc(CCCOC(=O)c2ccc(OC)c(Cl)c2)c2c1C(=O)NCC1(CCOCC1)C2` [Example 58, 3-(1-ethyl-8-oxo-spiro[6,7-dihydro-4H-pyrazolo[3,4-c]azepine-5,4′-tetrahydropyran]-3-yl)propyl 3-chloro-4-methoxy-benzoate], for which the IC50 is under 100 nM.

For the compound `CCn1nc(CC(C)(C)COC(=O)c2ccc(S(C)(=O)=O)cc2)c2c1C(=O)NCC1(CCOCC1)C2` [Example 202, [3-(1-ethyl-8-oxo-spiro[6,7-dihydro-4H-pyrazolo[3,4-c]azepine-5,4′-tetrahydropyran]-3-yl)-2,2-dimethyl-propyl] 4-methylsulfonylbenzoate], the IC50 was under 100 nM.

For `CCn1nc(C[C@@H](C)COC(=O)CCOC)c2c1C(=O)NCC1(CCOCC1)C2` [Example 137, [(2R)-3-(1-ethyl-8-oxo-spiro[6,7-dihydro-4H-pyrazolo[3,4-c]azepine-5,4′-tetrahydropyran]-3-yl)-2-methyl-propyl] 3-methoxypropanoate], the IC50 was under 100 nM.

On to `CCn1nc(CCCCOC(=O)c2cnc(C)o2)c2c1C(=O)NCC1(CCOCC1)C2` [Example 267, 4-(1-ethyl-8-oxo-spiro[6,7-dihydro-4H-pyrazolo[3,4-c]azepine-5,4′-tetrahydropyran]-3-yl)butyl 2-methyloxazole-5-carboxylate], for which the IC50 is under 100 nM.

For the compound `CCn1nc(CCCOC(=O)c2ccc(C(F)(F)F)c(Cl)c2)c2c1C(=O)NCC1(CCOCC1)C2` [Example 86, 3-(1-ethyl-8-oxo-spiro[6,7-dihydro-4H-pyrazolo[3,4-c]azepine-5,4′-tetrahydro-pyran]-3-yl)propyl 3-chloro-4-(trifluoromethyl)benzoate], the IC50 was under 100 nM.

For the compound `CCn1nc(C[C@@H](C)COC(=O)c2ccc(S(=O)(=O)C(C)C)cc2)c2c1C(=O)NCC1(CCOCC1)C2` [Example 160, [(2R)-3-(1-ethyl-8-oxo-spiro[6,7-dihydro-4H-pyrazolo[3,4-c]azepine-5,4′-tetrahydropyran]-3-yl)-2-methyl-propyl] 4-isopropylsulfonylbenzoate], the IC50 was under 100 nM.

As for `CCn1nc(CCCOC(=O)c2ccc(C(F)F)cc2)c2c1C(=O)NCC1(CCOCC1)C2` [Example 45, 3-(1-ethyl-8-oxo-spiro[6,7-dihydro-4H-pyrazolo[3,4-c]azepine-5,4′-tetrahydropyran]-3-yl)propyl 4-(difluoromethyl)benzoate], the IC50 was under 100 nM.

Turning to `CCn1nc(CCCOC(=O)c2ccccc2)c2c1C(=O)NCC1(CCOCC1)C2` [Example 7, 3-(1-ethyl-8-oxo-spiro[6,7-dihydro-4H-pyrazolo[3,4-c]azepine-5,4′-tetrahydropyran]-3-yl)propyl benzoate], the IC50 is under 100 nM.

Take `CCn1nc(CCCOC(=O)c2ccc(C(F)(F)F)c(C(F)(F)F)c2)c2c1C(=O)NCC1(CCOCC1)C2` [Example 98, 3-(1-ethyl-8-oxo-spiro[6,7-dihydro-4H-pyrazolo[3,4-c]azepine-5,4′-tetrahydropyran]-3-yl)propyl 3,4-bis(trifluoromethyl)benzoate]: the IC50 was under 100 nM.

As for `CCn1nc(C[C@@H](C)COC(=O)c2ccc(C(=O)N3CCN(C(C)=O)CC3)cc2)c2c1C(=O)NCC1(CCOCC1)C2` [Example 176, [(2R)-3-(1-ethyl-8-oxo-spiro[6,7-dihydro-4H-pyrazolo[3,4-c]azepine-5,4′-tetrahydropyran]-3-yl)-2-methyl-propyl] 4-(4-acetylpiperazine-1-carbonyl)benzoate], the IC50 was under 100 nM.

Consider `CCn1nc(CCCOC(=O)c2ccc(F)c(F)c2)c2c1C(=O)NCC1(CCOCC1)C2` [Example 23, 3-(1-ethyl-8-oxo-spiro[6,7-dihydro-4H-pyrazolo[3,4-c]azepine-5,4′-tetrahydropyran]-3-yl)propyl 3,4-difluorobenzoate], for which the IC50 was under 100 nM.

On to `CCn1nc(C[C@@H](C)COC(=O)[C@H]2CC[C@H](O)CC2)c2c1C(=O)NCC1(CCOCC1)C2` [Example 146, [(2R)-3-(1-ethyl-8-oxo-spiro[6,7-dihydro-4H-pyrazolo[3,4-c]azepine-5,4′-tetrahydropyran]-3-yl)-2-methyl-propyl] 4-hydroxy-cyclohexanecarboxylate], for which the IC50 was under 100 nM.

In the case of `CCn1nc(C[C@@H](C)COC(=O)c2ccc(C(=O)N3CCCC3)cc2)c2c1C(=O)NCC1(CCOCC1)C2` [Example 172, [(2R)-3-(1-ethyl-8-oxo-spiro[6,7-dihydro-4H-pyrazolo[3,4-c]azepine-5,4′-tetrahydropyran]-3-yl)-2-methyl-propyl] 4-(pyrrolidine-1-carbonyl)benzoate], the IC50 was under 100 nM.

In the case of `CCc1ccc(C(=O)OCCCc2nn(CC)c3c2CC2(CCOCC2)CNC3=O)cc1` [Example 15, 3-(1-ethyl-8-oxo-spiro[6,7-dihydro-4H-pyrazolo[3,4-c]azepine-5,4′-tetrahydropyran]-3-yl)propyl 4-ethylbenzoate], the IC50 was under 100 nM.

For the compound `CCn1nc(C[C@@H](C)COC(=O)c2cccc(S(=O)(=O)CC)c2)c2c1C(=O)NCC1(CCOCC1)C2` [Example 156, [(2R)-3-(1-ethyl-8-oxo-spiro[6,7-dihydro-4H-pyrazolo[3,4-c]azepine-5,4′-tetrahydropyran]-3-yl)-2-methyl-propyl] 3-ethylsulfonylbenzoate], the IC50 was under 100 nM.

As to `CCn1nc(CCCOC(=O)c2ccc(S(=O)(=O)C(C)C)cc2)c2c1C(=O)NCC1(CCOCC1)C2` [Example 93, 3-(1-ethyl-8-oxo-spiro[6,7-dihydro-4H-pyrazolo[3,4-c]azepine-5,4′-tetrahydropyran]-3-yl)propyl 4-isopropylsulfonylbenzoate], the IC50 is under 100 nM.

`CCn1nc(CCCCOC(=O)C(C)C)c2c1C(=O)NCC1(CCOCC1)C2` [Example 121, 4-(1-ethyl-8-oxo-spiro[6,7-dihydro-4H-pyrazolo[3,4-c]azepine-5,4′-tetrahydropyran]-3-yl)butyl 2-methyl-propanoate]: the IC50 was under 100 nM.
